For one series, the system named is C57BL/6JRj mice. The experiment in a line: DIO NASH model (Gubra Amylin NASH Diet). The following applies: 12 weeks, DM or MH 10 mg/kg, Obeticholic Acid 30 mg/kg. The series is classed as in vivo. The protocol:
In vivo effects of the compounds (DM and MH) were examined in a NASH model which is outlined by the timeline in FIG. 8A. 41 weeks before treatment NASH was induced in C57BL/6JRj mice by using the Gubra Amylin NASH Diet. After stratification, randomization and base-line measurements the mice were divided into four groups (16 mice per group). Each group was either dosed with 10 mg/kg of DM or MH, 30 mg/kg Obeticholic Acid or vehicle for 12 weeks respectively. […] After four weeks of treatment (FIG. 8C) and after termination (FIG. 8D) biochemical parameters were determined to examine and compare liver health (plasma alanine aminotransferase and plasma aspartate aminotransferase) and lipid homeostasis (plasma triglycerides and plasma total cholesterol) among treatment groups and healthy mice. Furthermore, livers of all animals were analyzed by histopathology and the use of immuno-histochemistry (FIG. 9 and FIG. 10). […] Inflammatory effects in the treatment groups are shown in FIG. 13a in a similar manner including a post-treatment histopathological analysis of inflammatory markers for the different treatment groups in FIG. 13b to investigate the anti-inflammatory in vivo activity of the compounds.

For series [1], the target named is T1, FXR (Homo sapiens, UniProt Q96RI1).
T1 sequence (Q96RI1 1-486): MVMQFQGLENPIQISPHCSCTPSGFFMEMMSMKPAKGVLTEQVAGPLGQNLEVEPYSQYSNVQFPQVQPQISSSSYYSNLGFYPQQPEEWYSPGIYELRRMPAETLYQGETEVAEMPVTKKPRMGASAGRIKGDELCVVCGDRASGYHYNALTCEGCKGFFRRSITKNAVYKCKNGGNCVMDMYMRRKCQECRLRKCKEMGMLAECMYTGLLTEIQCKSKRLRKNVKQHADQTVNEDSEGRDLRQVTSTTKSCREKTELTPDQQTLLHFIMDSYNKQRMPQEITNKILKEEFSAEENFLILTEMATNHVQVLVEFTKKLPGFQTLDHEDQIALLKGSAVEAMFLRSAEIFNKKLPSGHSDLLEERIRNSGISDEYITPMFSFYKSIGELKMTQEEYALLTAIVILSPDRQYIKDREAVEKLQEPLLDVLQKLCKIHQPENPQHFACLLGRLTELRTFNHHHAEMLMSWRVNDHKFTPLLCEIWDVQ
The experiment in a line: FXR activation (EC50, efficacy vs GW4064, mode). The format is cell-based.

Series [2] relates to UUO mice. The experiment in a line: UUO renal fibrosis model, Protocol 1 (preventive pre-treatment). The series is classed as in vivo, Male C57Bl/6J mice. The procedure: This study was approved and conducted according to guidelines of the Institutional Animal Care and Use Committee, Medical College of Wisconsin. The Biomedical Resource Center at the Medical College of Wisconsin housed animals with free access to water and food and a 12/12 h light-dark cycle. Male C57B1/6J mice (8-10 weeks old) were purchased from Jackson Laboratories, Bar Harbor, Me. Mice were administered 2.0% isoflurane to induce anesthesia prior to UUO surgery. UUO surgery was conducted with by obstructing the left ureter proximal to the renal pelvis using a 6-o silk tie (Sharma et al., 2016; Kim et al., 2015). Mice with sham surgery went through the same procedure as the UUO mice except that the ureter was not ligated. Two experimental protocols were used to determine renal antifibrotic actions of DM509 and in both protocols the mice were subjected to Sham surgery (n=6/protocol) or Unilateral Ureteral Obstruction (UUO) surgery to induce renal fibrosis. In Protocol 1, mice went through UUO surgery after 24 hours pre-treatment of DM509 (10 mg/kg/d, p.o., n=8) or vehicle (n=8) and blood and kidney tissue were collected at day 10 of the UUO surgery. Mice of the Protocol 2 treated with DM509 (n=8) or vehicle (n=8) after 3 days of UUO surgery and continued for 7 days followed by blood and kidney tissue collection. […] Kidney hydroxyproline levels were measured using a commercially available kit (Sigma Aldrich, USA). Blood urea nitrogen (BUN) is measured using a kit from Arbor Assay, USA and monocyte chemoattractant protein-1 (MCP-1) was measured using kit from R&D Systems, Inc., USA. Renal mRNA expression for several fibrotic [fibronectin, α-smooth muscle actin (α-SMA), fibroblast specific protein-1 (FSP-1], tubular injury [NGAL, kidney injury molecule-1 (KIM-1), Claudins1,3,4,5], inflammatory (TNF-α, IL1β, IL-6, ICAM, VCAM) were studied by Real Time-PCR (RT-PCR) analysis. RNeasy Mini Kit (QIAGEN, Calif., USA) was used according to the manufacturer's protocol and messenger RNA (mRNA) was prepared from each sample homogenate. The mRNA samples were quantified spectrophotometrically and 1 μg of total RNA was reverse-transcribed to cDNA using iScript™ Select cDNA Synthesis Kit (Bio-Rad, Hercules, Calif., USA). Gene expression was quantified by iScript One-Step RT-PCR Kit with SYBR green using the MyiQ™ Single Color Real-Time PCR Detection System (Bio-Rad Laboratories, Hercules, Calif., USA). Dissociation curve analysis was accomplished with iQ5 Optical System Software, Version 2.1 (Bio-Rad Laboratories, Hercules, Calif., USA), and each amplified sample analysed for homogeneity. […] All samples were run in triplicate and fold change in gene expression compared to controls determined by comparative threshold cycle (Ct) method. […]

Series [3] addresses T2, sEH (Homo sapiens, UniProt P34913).
T2 sequence (P34913 1-555): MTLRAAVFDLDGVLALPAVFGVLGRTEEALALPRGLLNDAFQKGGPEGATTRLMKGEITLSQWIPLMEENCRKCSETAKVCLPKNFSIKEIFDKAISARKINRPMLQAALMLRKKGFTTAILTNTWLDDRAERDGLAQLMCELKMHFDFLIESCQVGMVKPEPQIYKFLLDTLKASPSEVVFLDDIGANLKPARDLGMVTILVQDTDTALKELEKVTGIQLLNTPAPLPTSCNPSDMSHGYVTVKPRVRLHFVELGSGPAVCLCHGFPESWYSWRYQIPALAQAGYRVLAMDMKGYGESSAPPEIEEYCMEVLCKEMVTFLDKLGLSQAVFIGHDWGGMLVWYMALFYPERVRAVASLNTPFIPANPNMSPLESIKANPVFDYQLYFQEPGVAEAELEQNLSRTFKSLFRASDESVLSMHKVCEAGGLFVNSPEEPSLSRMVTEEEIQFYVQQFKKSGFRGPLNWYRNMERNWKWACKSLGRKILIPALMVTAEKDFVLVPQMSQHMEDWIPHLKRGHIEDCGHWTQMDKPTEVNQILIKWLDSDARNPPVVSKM
In words: sEH inhibition (cellular). The series is classed as cell-based.

In series [4] the test system is UUO mice. In words: UUO renal fibrosis model, Protocol 2 (interventional treatment). The series is classed as in vivo, Male C57Bl/6J mice. The procedure: This study was approved and conducted according to guidelines of the Institutional Animal Care and Use Committee, Medical College of Wisconsin. The Biomedical Resource Center at the Medical College of Wisconsin housed animals with free access to water and food and a 12/12 h light-dark cycle. Male C57B1/6J mice (8-10 weeks old) were purchased from Jackson Laboratories, Bar Harbor, Me. Mice were administered 2.0% isoflurane to induce anesthesia prior to UUO surgery. UUO surgery was conducted with by obstructing the left ureter proximal to the renal pelvis using a 6-o silk tie (Sharma et al., 2016; Kim et al., 2015). Mice with sham surgery went through the same procedure as the UUO mice except that the ureter was not ligated. Two experimental protocols were used to determine renal antifibrotic actions of DM509 and in both protocols the mice were subjected to Sham surgery (n=6/protocol) or Unilateral Ureteral Obstruction (UUO) surgery to induce renal fibrosis. In Protocol 1, mice went through UUO surgery after 24 hours pre-treatment of DM509 (10 mg/kg/d, p.o., n=8) or vehicle (n=8) and blood and kidney tissue were collected at day 10 of the UUO surgery. Mice of the Protocol 2 treated with DM509 (n=8) or vehicle (n=8) after 3 days of UUO surgery and continued for 7 days followed by blood and kidney tissue collection. Kidney samples for histological and immune-histological studies were fixed in 10% buffered formalin and stored at room temperature. Serum and tissue samples for biochemical and gene expression analysis were snap-frozen in liquid nitrogen and stored at […]. Kidney hydroxyproline levels were measured using a commercially available kit (Sigma Aldrich, USA). Blood urea nitrogen (BUN) is measured using a kit from Arbor Assay, USA and monocyte chemoattractant protein-1 (MCP-1) was measured using kit from R&D Systems, Inc., USA. Renal mRNA expression for several fibrotic [fibronectin, α-smooth muscle actin (α-SMA), fibroblast specific protein-1 (FSP-1], tubular injury [NGAL, kidney injury molecule-1 (KIM-1), Claudins1,3,4,5], inflammatory (TNF-α, IL1β, IL-6, ICAM, VCAM) were studied by Real Time-PCR (RT-PCR) analysis. RNeasy Mini Kit (QIAGEN, Calif., USA) was used according to the manufacturer's protocol and messenger RNA (mRNA) was prepared from each sample homogenate. The mRNA samples were quantified spectrophotometrically and 1 μg of total RNA was reverse-transcribed to cDNA using iScript™ Select cDNA Synthesis Kit (Bio-Rad, Hercules, Calif., USA). Gene expression was quantified by iScript One-Step RT-PCR Kit with SYBR green using the MyiQ™ Single Color Real-Time PCR Detection System (Bio-Rad Laboratories, Hercules, Calif., USA). Dissociation curve analysis was accomplished with iQ5 Optical System Software, Version 2.1 (Bio-Rad Laboratories, Hercules, Calif., USA), and each amplified sample analysed for homogeneity. Denaturation was done at 95° C. for 2 min followed by 40 cycles conducted at 95° C. for 10 s and at 60° C. for 30 s. All samples were run in triplicate and fold change in gene expression compared to controls determined by comparative threshold cycle (Ct) method. Target gene expression levels were determined by normalizing Ct values to two housekeeping genes. Statistical analyses were carried out using six samples from each experimental group and comparing to the control group. […] PAS-stained tissue was evaluated for tubular injury whilst PSR was used to determine collagen-positive renal interstitial fibrosis levels. Histopathological changes were scored as published previously and scores presented as a percentage area-fraction relative to the total area analysed. Tubular injury (PAS-cast areas) and interstitial fibrosis (PSR-collagen positive areas) scoring was performed in a blinded fashion by two observers. […]

Series [5] addresses T2, sEH. In words: sEH inhibition (enzyme). The format is biochemical.
Series [6] deals with T1, FXR. In words: FXR binding (Kd).
Setting [7] is: DM509 pre-treatment 10 mg/kg/d p.o., day 10.
[8] abbreviates: interventional treatment 10 mg/kg/d, 7 days.

SMILES strings stand for the structures. “Also recorded” adds a separate entry of the source. Where only a bound is given, the exact number is not on record here.

The term EC50 denotes the concentration at which the effect is half-maximal. Higher therefore signals weaker potency. For orientation: IC50 means the concentration at which inhibition is half-maximal. Read a high IC50 as weaker potency. Take `CC(C)(C)c1ccc(C(=O)NCc2ccc(NS(C)(=O)=O)cc2Cl)cc1` [DM509]: in the series with C57BL/6JRj mice, the “cumulative daily food intake, difference among treatment groups” value is “neither differences in cummulative daily food intake”. Moreover, at FXR [1], the EC50 was 20 nM, the FXR efficacy is given as 35 % of GW4064 and the “FXR mode of action” value was “partial agonist”. Moreover, in the series with UUO mice [2] (setting [7]), the “lower collagen positive area than vehicle” value turned out to be 54%; the “lower renal mRNA expression of fibrotic markers (α-SMA, fibronectin) than vehicle” value was 40-60%; the “lower renal mRNA expression of inflammatory markers” value is reported as 50-80%. In the series with UUO mice [2] (preventive treatment 10 mg/kg/d), the “kidney fibrosis (in words)” value is given as “decreased UUO kidney fibrosis”. At sEH [3], half-maximal inhibition (IC50) required 1 nM. Further, in the series on UUO mice [4], the “renal CD45 positive inflammatory cell infiltration (in words)” value was “reduced infiltration of these cells”; the “renal VE-cadherin mRNA and CD31 positive cells (in words)” value is “markedly mitigated the decrease of VE-cadherin and CD31 positive cells”; the “renal inflammation: renal MCP-1 level and cytokine (TNF-α, IL1β, IL6) expression (in words)” value is given as “markedly mitigated renal inflammation; also recorded: reduced renal inflammation”; the “renal mRNA expression of claudins (in words)” value is “re-stored the mRNA expressions of claudins 1,3,4 and 5; also recorded: restoring claudin expressions”. Further, in the series with UUO mice [4], the “renal mRNA expression of tubular injury markers KIM-1 and NGAL (in words)” value was “mitigated this marked elevation”; the “renal mRNA expression of vascular inflammatory markers ICAM and VCAM (in words)” value is “mitigated elevated expression”. The “peritubular vascular density assessed by CD31 expression (in words)” value in the series on UUO mice [4] (interventional treatment) is on record as “mitigated vascular density loss”. In addition, the “EMT: mesenchymal (FSP-1, fibronectin, α-SMA) and epithelial (E-cadherin) marker expressions in kidney (in words)” value with UUO mice [4] (interventional treatment 10 mg/kg/d) is “markedly attenuated EMT; also recorded: markedly reduced EMT”. For the same molecule, the “reduction of BUN” value in the series on UUO mice [4] (interventional treatment 10 mg/kg/d in drinking water, 7 days) is on record as 40%. In addition, in the series with UUO mice [4] (setting [8]), the “reduction of collagen positive area” value stood at 65%; the “reduction of kidney hydroxyproline content” value is 41%; the “reduction of renal ICAM and VCAM gene expression” value was 40-50%; the “reduction of tubular injury markers (KIM-1, NGAL)” value is 25-50%. The “renal fibrosis: collagen positive area and renal hydroxyproline content (in words)” value in the series on UUO mice [4] (treatment from day 3 after UUO for 7 days) is on record as “markedly mitigated renal fibrosis”. The same molecule yielded an IC50 against sEH [5] of 4 nM.

One may read the Kd as the constant that tells how readily two partners part at equilibrium. The low end stands for higher affinity, the high end for lower affinity. On FXR [6], `CC(C)(C)c1ccc(C(=O)NCc2ccc(NS(C)(=O)=O)cc2Cl)s1` [MH] returned a Kd of 1400 nM. The “cumulative daily food intake, difference among treatment groups” value with C57BL/6JRj mice is “neither differences in cummulative daily food intake”. Moreover, on FXR [1], the “FXR mode of action” value was “selective modulator”. Also, the 50% inhibitory concentration (IC50) against sEH [3] and on sEH [5] was less than 1 nM each time.

For `CC[C@H]1[C@@H](O)[C@@H]2[C@H](CC[C@]3(C)[C@@H]([C@H](C)CCC(=O)O)CC[C@@H]23)[C@@]2(C)CC[C@@H](O)C[C@@H]12` [Obeticholic Acid, reference compound], the “cumulative daily food intake, difference among treatment groups” value in the series with C57BL/6JRj mice is listed as “neither differences in cummulative daily food intake”.

Source of the values: US20220273593A1, “COMPOUNDS AND COMPOSITIONS FOR TREATING KIDNEY DISEASE” (JOHANN WOLFGANG GOETHE-UNIVERSITÄT FRANKFURT AM MAIN, priority 2019, published 2022).
